The source of these data is ChEMBL document CHEMBL5038636, “Dihydrolucilactaene, a Potent Antimalarial Compound from Fusarium sp. RK97-94” (J Nat Prod, 2022).

Assay [1] concerns Plasmodium falciparum. Put plainly: Antimalarial activity against wild-type Plasmodium falcipuram 3D7 assessed as growth inhibition. The class given is functional, organism-based.
In assay [2] the test system is HL-60. Put plainly: Cytotoxicity against human HL-60 cells assessed as growth inhibition. Type of assay: functional, cell-based.
Assay [3] deals with HeLa. In words: Cytotoxicity against human HeLa cells assessed as growth inhibition. Type of assay: functional, cell-based.
Assay [4] has as its system T98G. Put plainly: Cytotoxicity against human T98G cells assessed as growth inhibition. The class given is functional, cell-based.
Assay [5] concerns Candida albicans. In words: Antifungal activity against Candida albicans JCM1542 assessed as growth inhibition. The class given is functional, organism-based.
Assay [6] deals with Pyricularia oryzae. In words: Antifungal activity against Pyricularia oryzae kita-1 assessed as growth inhibition. Type of assay: functional, organism-based.
For assay [7], the system named is Escherichia coli. Put plainly: Antibacterial activity against Escherichia coli HO141 assessed as growth inhibition. The class given is functional, organism-based.
Assay [8] concerns Staphylococcus aureus. In words: Antibacterial activity against Staphylococcus aureus 209 assessed as growth inhibition. Type of assay: functional, organism-based.
Assay [9] relates to MKN-74. Put plainly: Cytotoxicity against human MKN74 cells assessed as growth inhibition. The class given is functional, cell-based.
Assay [10] has as its system Aspergillus fumigatus. Put plainly: Antifungal activity against Aspergillus fumigatus Af293 assessed as growth inhibition. The class given is functional, organism-based.
Assay [11] concerns Plasmodium falciparum. Put plainly: Antimalarial activity against chloroquine-resistant Plasmodium falcipuram K1 assessed as growth inhibition. Type of assay: functional, organism-based.

Broadly, the IC50 is the concentration at which inhibition is half-maximal. In the case of `C[C@@H]1CC[C@H]2[C@@H](C)C(=O)O[C@@H]3O[C@@]4(C)CC[C@@H]1[C@]32OO4` [ARTEMISININ], the half-inhibitory concentration (IC50) in [1] came out at 0.019 µM.
With `C\C=C(/C=C(C)/C=C/C=C/C=C(\C)C(=O)[C@@]1(O)C(=O)N[C@]2(O)CCO[C@H]12)C(=O)OC`, the IC50 in assay [1] is 0.67 µM; in assay [2], above 70 µM; in assay [3], above 70 µM.
For `CC(=O)O[C@H]1C(=O)[C@@]2(C)[C@H]([C@H](OC(=O)c3ccccc3)[C@]3(O)C[C@H](OC(=O)[C@H](O)[C@@H](NC(=O)c4ccccc4)c4ccccc4)C(C)=C1C3(C)C)[C@]1(OC(C)=O)CO[C@@H]1C[C@@H]2O` [PACLITAXEL], the IC50 was 0.0022 µM in assay [2], 0.0043 µM in assay [3] and 8.7 µM in [4].
For `C\C=C(/C=C(C)/C=C/C=C/C=C(\C)C(O)[C@]12O[C@H]1[C@@](O)(CCO)NC2=O)C(=O)OC` (some centres not stated), the IC50 is above 70 µM in assay [5]; 62.1 µM in [1]; above 70 µM in assay [6]; above 70 µM in [7]; above 70 µM in assay [8]; above 70 µM in assay [2]. Further, the half-inhibitory concentration (IC50) in [9], in [3], in assay [4] and in assay [10] was above 70 µM each time.
Take `C[C@@H]1[C@H](O)[C@@H](C)/C=C/C=C/C=C/C=C/C=C/C=C/C=C/[C@H](O[C@@H]2O[C@H](C)[C@@H](O)[C@H](N)[C@@H]2O)C[C@@H]2O[C@](O)(C[C@@H](O)C[C@@H](O)[C@H](O)CC[C@@H](O)C[C@@H](O)CC(=O)O[C@H]1C)C[C@H](O)[C@H]2C(=O)O` [AMPHOTERICIN B]: the 50% inhibitory concentration (IC50) is 0.03 µM in assay [5], 0.16 µM in [6] and 0.21 µM in [10].
Regarding `O=C(N[C@H](CO)[C@H](O)c1ccc([N+](=O)[O-])cc1)C(Cl)Cl` [CHLORAMPHENICOL], the IC50 in assay [7] was 4.6 µM; in assay [8] it was 5.4 µM.
As for `C\C=C(/C=C(C)/C=C/C=C/C=C(\C)C(=O)[C@H]1C(=O)N[C@]2(O)CCO[C@H]12)C(=O)O`, the half-inhibitory concentration (IC50) in assay [5] is above 70 µM; in assay [1], 43.9 µM; in assay [6], above 70 µM; in assay [7] it was above 70 µM; in [8], above 70 µM; in assay [2], above 70 µM. Also, the 50% inhibitory concentration (IC50) in [3] and in assay [10] was above 70 µM throughout.
Consider `C\C=C(/C=C(C)/C=C/C=C/C=C(\C)C(=O)[C@]12O[C@H]1[C@@](O)(CCO)NC2=O)C(=O)OC`, for which the half-maximal inhibitory concentration (IC50) in [5] was above 70 µM; in assay [1], 1.8 µM; in assay [6] it was above 70 µM; in [7], above 70 µM; in assay [8] it was above 70 µM; in assay [2], 15.8 µM. For the same compound, the values for the half-maximal inhibitory concentration (IC50) in [3] and in assay [10] were 14.1 µM and above 70 µM, respectively.
In the case of `C\C=C(/C=C(C)/C=C/C=C/C=C(\C)C(=O)[C@H]1C(=O)N[C@]2(O)CCO[C@H]12)C(=O)OC`, the IC50 in assay [5] is above 70 µM; in [1], 0.15 µM; in assay [6], above 70 µM; in assay [7] it was above 70 µM; in [8] it was above 70 µM; in assay [2], 17.4 µM. Besides, the half-inhibitory concentration (IC50) in assay [3] was 24.9 µM; in [10] it was above 70 µM.
For `C\C=C(/C=C(C)/C=C/C=C/C=C(\C)C(=O)C1C[C@@](O)(CCO)NC1=O)C(=O)OC` (some centres not stated), the half-inhibitory concentration (IC50) in assay [11] was 0.0015 µM; in [5], above 70 µM; in assay [1] it was 0.0015 µM; in assay [6] it was 6.7 µM; in assay [7] it was above 70 µM; in assay [8] it was above 70 µM. The IC50 was 37.7 µM in assay [2]; above 70 µM in [9]; 21.5 µM in assay [3]; above 70 µM in assay [4]; above 70 µM in assay [10].
